The supplement of paper PMC7017272
± gives the standard deviation of the averaged measurements.

Columns and labels:
[1] = system: UT-SCC-8; test: relative IC50 (midpoint of the fitted curve; maximal inhibition may be below 50%); higher = less potent; conditions: culture condition: embedded in Matrigel; treatment time: 3 days
Procedure, shortened: (§1)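 Three growth formats were used for HPV-negative HNSCC cell lines in 384-well plates at 500 cells/well: bare plastic, wells coated with Matrigel or Myogel (500 µg/mL), and embedding in Matrigel or Myogel plus rat collagen I. Compounds were added at five 10-fold concentrations, and after 3 days CellTiter-Glo 2.0 luminescence was recorded and normalised to vehicle (0.1% DMSO) and cell-killing control wells. IC50, maximal inhibition and drug sensitivity score came from percent-inhibition dose–response fitting in the FIMM pipeline.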

[2] = system: UT-SCC-24B; test: as above; conditions: treatment time: 3 days
Procedure, shortened: as §1

[3] = system: UT-SCC-28; test: as above; conditions: culture condition: plastic 2D (no matrix); treatment time: 3 days
Procedure, shortened: as §1

[4] = system: UT-SCC-40; test: as above; conditions: treatment time: 3 days
Procedure, shortened: as §1

[5] = system: UT-SCC-106A; test: as above; conditions: treatment time: 3 days
Procedure, shortened: as §1

[6] = system: UT-SCC-14; test: maximal % inhibition of viability relative to DMSO; higher = stronger effect; conditions: treatment time: 3 days
Procedure, shortened: as §1

[7] = system: UT-SCC-8; test: as above; conditions: treatment time: 3 days
Procedure, shortened: as §1

[8] = system: UT-SCC-42A; test: as above; conditions: treatment time: 3 days
Procedure, shortened: as §1

[9] = system: UT-SCC-24B; test: as above; conditions: treatment time: 3 days
Procedure, shortened: as §1

[10] = system: UT-SCC-28; test: as above; conditions: treatment time: 3 days
Procedure, shortened: as §1

[11] = system: UT-SCC-40; test: as above; conditions: treatment time: 3 days
Procedure, shortened: as §1

[12] = system: UT-SCC-44; test: as above; conditions: treatment time: 3 days
Procedure, shortened: as §1

[13] = system: UT-SCC-73; test: as above; conditions: treatment time: 3 days
Procedure, shortened: as §1

[14] = system: UT-SCC-81; test: as above; conditions: treatment time: 3 days
Procedure, shortened: as §1

[15] = system: UT-SCC-106A; test: as above; conditions: treatment time: 3 days
Procedure, shortened: as §1

[16] = system: UT-SCC-42B; test: as above; conditions: treatment time: 3 days
Procedure, shortened: as §1

[17] = system: UT-SCC-24A; test: drug sensitivity score (DSS); higher = more sensitive; conditions: treatment time: 3 days
Description: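 HNSCC cell lines (500 cells/well, 384-well) were cultured on plastic, on top of (2D) or embedded (3D) in Matrigel or human leiomyoma matrix Myogel (500 ug/mL; Myogel 3D mixed with rat collagen I). Cells were treated for 3 days with 5 ten-fold concentrations of each drug, and viability was read by CellTiter-Glo. Suffixes _1/_2/_3 on drug names are replicates.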

[18] = system: UT-SCC-24A; test: maximal % inhibition of viability relative to DMSO; higher = stronger effect; conditions: treatment time: 3 days
Procedure, shortened: as §1

[19] = culture condition: embedded in Matrigel
[20] = culture condition: embedded in Myogel + collagen I
[21] = culture condition: on top of Matrigel
[22] = culture condition: on top of Myogel
[23] = culture condition: plastic 2D (no matrix)

## CC(=O)Nc1cccc(-n2c(=O)n(C3CC3)c(=O)c3c(Nc4ccc(I)cc4F)n(C)c(=O)c(C)c32)c1 [Trametinib]
[1]
  relative IC50: 11.3 nM
[2]; [19]
  relative IC50: 9.83 nM
[2]; [20]
  relative IC50: 9.92 nM
[2]; [21]
  relative IC50: 11.6 nM
[2]; [22]
  relative IC50: 22.7 nM
[2]; [23]
  relative IC50: 7.62 nM
[3]
  relative IC50: 1.42 nM
[4]; [21]
  relative IC50: 3.55 nM
[4]; [22]
  relative IC50: 4.8 nM
[5]; [19]
  relative IC50: 0.942 nM
[5]; [21]
  relative IC50: 1.25 nM
[5]; [23]
  relative IC50: 1.5 nM
[6]; [19]
  maximal % inhibition of viability: 43.2 ± 5.3%
[6]; [20]
  maximal % inhibition of viability: 31 ± 10%
[6]; [21]
  maximal % inhibition of viability: 37.1 ± 8.6%
[6]; [22]
  maximal % inhibition of viability: 22.9 ± 3%
[6]; [23]
  maximal % inhibition of viability: 24 ± 8.8%
[7]; [19]
  maximal % inhibition of viability: 61.3 ± 18%
[7]; [20]
  maximal % inhibition of viability: 24.5 ± 29%
[7]; [21]
  maximal % inhibition of viability: 47.3 ± 24%
[7]; [22]
  maximal % inhibition of viability: 41.1 ± 19%
[7]; [23]
  maximal % inhibition of viability: 43 ± 23%
[8]; [19]
  maximal % inhibition of viability: 45.4 ± 0.67%
[8]; [20]
  maximal % inhibition of viability: 22.1 ± 5.4%
[8]; [21]
  maximal % inhibition of viability: 50.3 ± 4.1%
[8]; [22]
  maximal % inhibition of viability: 29.4 ± 6.9%
[8]; [23]
  maximal % inhibition of viability: 34.7 ± 3.8%
[9]; [19]
  maximal % inhibition of viability: 67.1 ± 3.1%
[9]; [20]
  maximal % inhibition of viability: 66.5 ± 3.8%
[9]; [21]
  maximal % inhibition of viability: 67.53 ± 0.29%
[9]; [22]
  maximal % inhibition of viability: 59.1 ± 4.8%
[9]; [23]
  maximal % inhibition of viability: 78.8 ± 1.7%
[10]; [19]
  maximal % inhibition of viability: 36.7 ± 7.8%
[10]; [20]
  maximal % inhibition of viability: 29.7 ± 26%
[10]; [21]
  maximal % inhibition of viability: 35.1 ± 7.7%
[10]; [23]
  maximal % inhibition of viability: 21.1 ± 4.4%
[11]; [19]
  maximal % inhibition of viability: 78.07 ± 0.4%
[11]; [20]
  maximal % inhibition of viability: 61.7 ± 4.8%
[11]; [21]
  maximal % inhibition of viability: 71.7 ± 2.8%
[11]; [22]
  maximal % inhibition of viability: 51.9 ± 1.5%
[11]; [23]
  maximal % inhibition of viability: 52.2 ± 7.5%
[12]; [19]
  maximal % inhibition of viability: 66.8 ± 1.4%
[12]; [20]
  maximal % inhibition of viability: 23 ± 2.4%
[12]; [21]
  maximal % inhibition of viability: 46.1 ± 8.3%
[12]; [22]
  maximal % inhibition of viability: 28.4 ± 11%
[12]; [23]
  maximal % inhibition of viability: 41.1 ± 9%
[13]; [19]
  maximal % inhibition of viability: 81.2 ± 1.7%
[13]; [20]
  maximal % inhibition of viability: 62.8 ± 12%
[13]; [21]
  maximal % inhibition of viability: 76.9 ± 0.9%
[13]; [22]
  maximal % inhibition of viability: 63.3 ± 3.6%
[13]; [23]
  maximal % inhibition of viability: 70.53 ± 0.25%
[14]; [19]
  maximal % inhibition of viability: 84.9 ± 2.4%
[14]; [20]
  maximal % inhibition of viability: 24.5 ± 2.6%
[14]; [21]
  maximal % inhibition of viability: 78.6 ± 2.9%
[14]; [22]
  maximal % inhibition of viability: 27.8 ± 11%
[14]; [23]
  maximal % inhibition of viability: 44.1 ± 8.9%
[15]; [19]
  maximal % inhibition of viability: 51.5 ± 3.2%
[15]; [20]
  maximal % inhibition of viability: 15.1 ± 2.8%
[15]; [21]
  maximal % inhibition of viability: 61.8 ± 3.4%
[15]; [22]
  maximal % inhibition of viability: 23.2 ± 8.1%
[15]; [23]
  maximal % inhibition of viability: 63.5 ± 1.5%
[16]; [19]
  maximal % inhibition of viability: 67.8 ± 4.4%
[16]; [21]
  maximal % inhibition of viability: 52.2 ± 7.1%
[16]; [22]
  maximal % inhibition of viability: 20.8 ± 7.8%
[16]; [23]
  maximal % inhibition of viability: 28.8 ± 8%
[17]; [19]
  drug sensitivity score: 20.2 ± 1.9 DSS
[17]; [20]
  drug sensitivity score: 8.77 ± 2.7 DSS
[17]; [21]
  drug sensitivity score: 18.9 ± 1.5 DSS
[17]; [22]
  drug sensitivity score: 3.8 ± 1.6 DSS
[17]; [23]
  drug sensitivity score: 18.2 ± 2.1 DSS
[18]; [19]
  maximal % inhibition of viability: 74.7 ± 4%
[18]; [20]
  maximal % inhibition of viability: 48.6 ± 6.4%
[18]; [21]
  maximal % inhibition of viability: 69.5 ± 5.2%
[18]; [22]
  maximal % inhibition of viability: 33.1 ± 9.5%
[18]; [23]
  maximal % inhibition of viability: 62.4 ± 10%
